# Tests used:
# [1] = test system: pigweed, palmer; assay: Test A preemergence; type: in vivo, Amaranthus palmeri
# How it was run: (§1)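 Visual injury ratings on a 0–100 scale (100 = complete control) versus untreated controls, taken 10 days after treatment in greenhouse. Preemergence: directed soil spray onto seeded loam/sand. Postemergence: foliar application at one- to two-leaf stage, plants 2–10 cm. Formulation: non-phytotoxic solvent plus surfactant.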
# [2] = test system: foxtail, giant; assay: Test A postemergence; type: in vivo, Setaria faberi
# How it was run: as §1
# [3] = test system: sedge, umbrella; assay: Test B flooded paddy test; type: in vivo, Cyperus difformis; details: 250 g ai/ha, Flood, 13 days, 0 to 100 scale (0 no effect, 100 complete control)
# How it was run: (§2)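 Application into standing water (3 cm above soil) at the two-leaf stage; flood depth held constant. Evaluation: day 13, visual comparison with controls, 0 = no injury, 100 = complete control.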
# [4] = test system: barnyardgrass; assay: Test B flooded paddy test; type: in vivo, Echinochloa crus-galli; details: 250 g ai/ha, Flood, 13 days, 0 to 100 scale (0 no effect, 100 complete control)
# How it was run: as §2
# [5] = test system: oat, wild; assay: Test A preemergence; type: in vivo, Avena fatua
# How it was run: as §1
# [6] = test system: ragweed; assay: Test A postemergence; type: in vivo, Ambrosia artemisiifolia
# How it was run: as §1
# [7] = test system: soybean; assay: Test A preemergence; type: in vivo, Glycine max
# How it was run: as §1
# [8] = test system: wheat; assay: Test A preemergence; type: in vivo, Triticum aestivum
# How it was run: as §1
# [9] = test system: soybean; assay: Test A postemergence; type: in vivo, Glycine max
# How it was run: as §1
# [10] = test system: blackgrass; assay: Test A postemergence; type: in vivo, Alopecurus myosuroides
# How it was run: as §1
# [11] = test system: ducksalad; assay: Test B flooded paddy test; type: in vivo, Heteranthera limosa; details: 250 g ai/ha, Flood, 13 days, 0 to 100 scale (0 no effect, 100 complete control)
# How it was run: as §2
# [12] = test system: horseweed; assay: Test A postemergence; type: in vivo, Erigeron canadensis
# How it was run: as §1
# [13] = test system: goosegrass; assay: Test A postemergence; type: in vivo, Eleusine indica
# How it was run: as §1
# [14] = test system: goosegrass; assay: Test A preemergence; type: in vivo, Eleusine indica
# How it was run: as §1
# [15] = test system: kochia; assay: Test A preemergence; type: in vivo, Bassia scoparia
# How it was run: as §1
# [16] = test system: rice; assay: Test B flooded paddy test; type: in vivo, Oryza sativa; details: 250 g ai/ha, Flood, 13 days, 0 to 100 scale (0 no effect, 100 complete control)
# How it was run: as §2
# [17] = test system: blackgrass; assay: Test A preemergence; type: in vivo, Alopecurus myosuroides
# How it was run: as §1
# [18] = test system: corn; assay: Test A preemergence; type: in vivo, Zea mays
# How it was run: as §1
# [19] = test system: foxtail, giant; assay: Test A preemergence; type: in vivo, Setaria faberi
# How it was run: as §1
# [20] = test system: galium; assay: Test A postemergence; type: in vivo, Galium aparine
# How it was run: as §1
# [21] = test system: corn; assay: Test A postemergence; type: in vivo, Zea mays
# How it was run: as §1
# [22] = test system: ryegrass, Italian; assay: Test A postemergence; type: in vivo, Lolium multiflorum
# How it was run: as §1
# [23] = test system: kochia; assay: Test A postemergence; type: in vivo, Bassia scoparia
# How it was run: as §1
# [24] = test system: oat, wild; assay: Test A postemergence; type: in vivo, Avena fatua
# How it was run: as §1
# [25] = test system: ragweed; assay: Test A preemergence; type: in vivo, Ambrosia artemisiifolia
# How it was run: as §1
# [26] = test system: pigweed, palmer; assay: Test A postemergence; type: in vivo, Amaranthus palmeri
# How it was run: as §1
# [27] = test system: ryegrass, Italian; assay: Test A preemergence; type: in vivo, Lolium multiflorum
# How it was run: as §1
# [28] = test system: wheat; assay: Test A postemergence; type: in vivo, Triticum aestivum
# How it was run: as §1
# [29] = 125 g ai/ha, visual injury after 10 days, 0 to 100 scale, 0 is no effect, 100 is complete control
# [30] = 500 g ai/ha, 0 to 100 scale (0 no effect, 100 complete control), 10 days
# [31] = 125 g ai/ha, postemergence, 10 days, visual injury, 0 to 100 scale (0 no effect, 100 complete control)
# [32] = 500 g ai/ha, Postemergence, 0 to 100 scale
# [33] = 500 g ai/ha, postemergence, 10 days, visual injury, 0 to 100 scale (0 no effect, 100 complete control)
structure (smiles),measurement,setting,value
Cc1cccc2c1O[C@@H](C)CN2C(=O)c1cc(-n2cncn2)ccc1Cl [Compound 60],"Plant response rating, Pigweed, Palmer",[1]; [29],30
same,"Plant response rating, Pigweed, Palmer",[1]; [30],90
same,"Plant response rating, Foxtail, Giant",[2]; [31],90
same,"Plant response rating, Foxtail, Giant",[2]; [32],90
same,"Plant response rating, Sedge, Umbrella",[3],35
same,"Plant response rating, Barnyardgrass",[4],15
same,"Plant response rating, Oat, Wild",[5]; [29],0
same,"Plant response rating, Oat, Wild",[5]; [30],0
same,"Plant response rating, Ragweed",[6]; [31],20
same,"Plant response rating, Ragweed",[6]; [32],50
same,"Plant response rating, Soybean",[7]; [29],40
same,"Plant response rating, Soybean",[7]; [30],100
same,"Plant response rating, Wheat",[8]; [29],0
same,"Plant response rating, Wheat",[8]; [30],30
same,"Plant response rating, Soybean",[9]; [31],100
same,"Plant response rating, Soybean",[9]; [32],100
same,"Plant response rating, Blackgrass",[10]; [31],10
same,"Plant response rating, Blackgrass",[10]; [32],60
same,"Plant response rating, Ducksalad",[11],45
same,"Plant response rating, Horseweed",[12]; [31],0
same,"Plant response rating, Horseweed",[12]; [32],0
same,"Plant response rating, Goosegrass",[13]; [31],10
same,"Plant response rating, Goosegrass",[13]; [32],80
same,"Plant response rating, Goosegrass",[14]; [29],100
same,"Plant response rating, Goosegrass",[14]; [30],100
same,"Plant response rating, Kochia",[15]; [29],0
same,"Plant response rating, Kochia",[15]; [30],30
same,"Plant response rating, Rice",[16],0
same,"Plant response rating, Blackgrass",[17]; [29],20
same,"Plant response rating, Blackgrass",[17]; [30],70
same,"Plant response rating, Corn",[18]; [29],20
same,"Plant response rating, Corn",[18]; [30],30
same,"Plant response rating, Foxtail, Giant",[19]; [29],100
same,"Plant response rating, Foxtail, Giant",[19]; [30],100
same,"Plant response rating, Galium",[20]; [31],90
same,"Plant response rating, Galium",[20]; [32],100
same,"Plant response rating, Corn",[21]; [31],30
same,"Plant response rating, Corn",[21]; [32],80
same,"Plant response rating, Ryegrass, Italian",[22]; [31],0
same,"Plant response rating, Ryegrass, Italian",[22]; [32],60
same,"Plant response rating, Kochia",[23]; [31],20
same,"Plant response rating, Kochia",[23]; [32],70
same,"Plant response rating, Oat, Wild",[24]; [31],50
same,"Plant response rating, Oat, Wild",[24]; [32],90
same,"Plant response rating, Ragweed",[25]; [29],0
same,"Plant response rating, Ragweed",[25]; [30],20
same,"Plant response rating, Pigweed, Palmer",[26]; [31],20
same,"Plant response rating, Pigweed, Palmer",[26]; [32],50
same,"Plant response rating, Ryegrass, Italian",[27]; [29],100
same,"Plant response rating, Ryegrass, Italian",[27]; [30],100
same,"Plant response rating, Wheat",[28]; [31],30
same,"Plant response rating, Wheat",[28]; [32],60
Cc1cccc2c1O[C@@H](C)CN2C(=O)c1cccc(-n2cnc(C(C)(C)C)n2)c1 [Compound 65],"Plant response rating, Pigweed, Palmer",[1]; [29],90
same,"Plant response rating, Pigweed, Palmer",[1]; [30],100
same,"Plant response rating, Foxtail, Giant",[2]; [31],10
same,"Plant response rating, Foxtail, Giant",[2]; [32],50
same,"Plant response rating, Sedge, Umbrella",[3],95
same,"Plant response rating, Barnyardgrass",[4],0
same,"Plant response rating, Oat, Wild",[5]; [29],70
same,"Plant response rating, Oat, Wild",[5]; [30],80
same,"Plant response rating, Ragweed",[6]; [32],80
same,"Plant response rating, Soybean",[7]; [29],30
same,"Plant response rating, Soybean",[7]; [30],90
same,"Plant response rating, Wheat",[8]; [29],40
same,"Plant response rating, Wheat",[8]; [30],70
same,"Plant response rating, Soybean",[9]; [32],100
same,"Plant response rating, Blackgrass",[10]; [31],30
same,"Plant response rating, Blackgrass",[10]; [32],80
same,"Plant response rating, Ducksalad",[11],45
same,"Plant response rating, Horseweed",[12]; [31],0
same,"Plant response rating, Horseweed",[12]; [32],20
same,"Plant response rating, Goosegrass",[13]; [31],10
same,"Plant response rating, Goosegrass",[13]; [32],40
same,"Plant response rating, Goosegrass",[14]; [29],100
same,"Plant response rating, Goosegrass",[14]; [30],100
same,"Plant response rating, Kochia",[15]; [29],80
same,"Plant response rating, Kochia",[15]; [30],100
same,"Plant response rating, Rice",[16],0
same,"Plant response rating, Blackgrass",[17]; [29],80
same,"Plant response rating, Blackgrass",[17]; [30],90
same,"Plant response rating, Corn",[18]; [29],40
same,"Plant response rating, Corn",[18]; [30],50
same,"Plant response rating, Foxtail, Giant",[19]; [29],100
same,"Plant response rating, Foxtail, Giant",[19]; [30],100
same,"Plant response rating, Galium",[20]; [31],100
same,"Plant response rating, Galium",[20]; [32],100
same,"Plant response rating, Corn",[21]; [31],10
same,"Plant response rating, Corn",[21]; [32],70
same,"Plant response rating, Ryegrass, Italian",[22]; [32],100
same,"Plant response rating, Kochia",[23]; [31],60
same,"Plant response rating, Kochia",[23]; [32],90
same,"Plant response rating, Oat, Wild",[24]; [32],20
same,"Plant response rating, Ragweed",[25]; [29],0
same,"Plant response rating, Ragweed",[25]; [30],40
same,"Plant response rating, Pigweed, Palmer",[26]; [32],70
same,"Plant response rating, Ryegrass, Italian",[27]; [29],100
same,"Plant response rating, Ryegrass, Italian",[27]; [30],100
same,"Plant response rating, Wheat",[28]; [32],20
Cc1cccc2c1O[C@@H](C)CN2C(=O)c1cccc(-n2cnc(C(F)(F)F)n2)c1 [Compound 66],"Plant response rating, Pigweed, Palmer",[1]; [29],50
same,"Plant response rating, Pigweed, Palmer",[1]; [30],100
same,"Plant response rating, Foxtail, Giant",[2]; [31],20
same,"Plant response rating, Foxtail, Giant",[2]; [33],90
same,"Plant response rating, Sedge, Umbrella",[3],0
same,"Plant response rating, Barnyardgrass",[4],0
same,"Plant response rating, Oat, Wild",[5]; [29],30
same,"Plant response rating, Oat, Wild",[5]; [30],90
same,"Plant response rating, Ragweed",[6]; [33],40
same,"Plant response rating, Soybean",[7]; [29],30
same,"Plant response rating, Soybean",[7]; [30],40
same,"Plant response rating, Wheat",[8]; [29],20
same,"Plant response rating, Wheat",[8]; [30],80
same,"Plant response rating, Soybean",[9]; [33],100
same,"Plant response rating, Blackgrass",[10]; [31],60
same,"Plant response rating, Blackgrass",[10]; [32],90
same,"Plant response rating, Ducksalad",[11],0
same,"Plant response rating, Horseweed",[12]; [31],0
same,"Plant response rating, Horseweed",[12]; [33],0
same,"Plant response rating, Goosegrass",[13]; [31],10
same,"Plant response rating, Goosegrass",[13]; [33],50
same,"Plant response rating, Goosegrass",[14]; [29],100
same,"Plant response rating, Goosegrass",[14]; [30],100
same,"Plant response rating, Kochia",[15]; [29],10
same,"Plant response rating, Kochia",[15]; [30],90
same,"Plant response rating, Rice",[16],0
same,"Plant response rating, Blackgrass",[17]; [29],70
same,"Plant response rating, Blackgrass",[17]; [30],90
same,"Plant response rating, Corn",[18]; [29],30
same,"Plant response rating, Corn",[18]; [30],50
same,"Plant response rating, Foxtail, Giant",[19]; [29],90
same,"Plant response rating, Foxtail, Giant",[19]; [30],100
same,"Plant response rating, Galium",[20]; [31],80
same,"Plant response rating, Galium",[20]; [33],100
same,"Plant response rating, Corn",[21]; [31],0
same,"Plant response rating, Corn",[21]; [33],70
same,"Plant response rating, Ryegrass, Italian",[22]; [33],70
same,"Plant response rating, Kochia",[23]; [31],30
same,"Plant response rating, Kochia",[23]; [33],80
same,"Plant response rating, Oat, Wild",[24]; [33],70
same,"Plant response rating, Ragweed",[25]; [29],0
same,"Plant response rating, Ragweed",[25]; [30],0
same,"Plant response rating, Pigweed, Palmer",[26]; [33],30
same,"Plant response rating, Ryegrass, Italian",[27]; [29],100
same,"Plant response rating, Ryegrass, Italian",[27]; [30],100
same,"Plant response rating, Wheat",[28]; [33],20

# Reference: patent US20260262643A1, “HERBICIDAL BENZOXAZINES” (FMC CORPORATION, priority 2022, published 2026)
